Target: T1, CRP (Homo sapiens, UniProt P02741)
T1 sequence (P02741 19-224): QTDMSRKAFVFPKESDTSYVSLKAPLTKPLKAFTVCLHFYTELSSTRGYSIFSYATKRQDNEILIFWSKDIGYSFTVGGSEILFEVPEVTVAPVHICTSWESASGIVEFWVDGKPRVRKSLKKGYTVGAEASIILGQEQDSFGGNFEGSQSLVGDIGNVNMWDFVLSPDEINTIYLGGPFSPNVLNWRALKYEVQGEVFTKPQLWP
Test: rat acute myocardial infarction model (coronary artery ligation) with administered human CRP
Type: in vivo
Settings: ischaemia reperfusion design and terminal coronary artery ligation, Pepys, unpublished observations
Source text: Human CRP and activated rat complement were deposited in and around the infarct and the exacerbation of tissue damage was absolutely complement dependent. Similar observations were made in the middle cerebral artery occlusion model of stroke in rats (3).
The design of the first small molecule inhibitor of CRP binding for use in vivo, bis(phosphocholine)hexane (BPC6), enabled conclusive confirmation of the pathogenic role of human CRP in exacerbating tissue damage after ischaemic infarction (2).
BPC6 and BPC8 are avidly bound by CRP, cross linking pairs of the native pentameric protein molecules. […] However, the bis(phosphocholine)alkane series of compounds were difficult to synthesise and purify at scale.

With `C[N+](C)(C)CCOP(=O)(O)OCCCCCCCCOP(=O)(O)OCC[N+](C)(C)C` [Example 12, bis(phosphocholine)octane] the “protective effect against human CRP pathogenicity” value was “same protective effect”.

Target: T1, CRP
Test: inhibition of CRP binding in vitro
Settings: Pepys, unpublished observations

For `C[N+](C)(C)CCOP(=O)(O)OCCCCCCCCOP(=O)(O)OCC[N+](C)(C)C` [Example 12, bis(phosphocholine)octane], the “potency as inhibitor of CRP binding in vitro, compared with BPC6” value was “more potent inhibitor of CRP binding in vitro”.

Target: T1, CRP
Test: not given
Settings: rats undergoing coronary artery ligation and receiving human CRP; cited from earlier work

In the case of `C[N+](C)(C)CCOP(=O)([O-])OCCCCCCOP(=O)([O-])OCC[N+](C)(C)C` [BPC6, bis(phosphocholine)hexane], the “increased damage caused by human CRP after coronary artery ligation” value is listed as “completely abrogated the increased damage”.

Target: T1, CRP
Test: MIRA immunoturbidimetric assay (inhibition of CRP recognition, COBAS MIRA autoanalyser)
Type: binding
Parameters: The final concentrations were 0.73 μM native pentameric CRP; from tissue
Settings: 0.73 μM native pentameric CRP, TC buffer, 1 h at room temperature; read-out: IC50
Source text: The CRP immunoturbidimetric assay on the Roche COBAS MIRA Plus autoanalyser, utilises two different sized latex particles that are covalently coupled with two different monoclonal antibodies with specificity for different CRP epitopes (5). The assay was validated by Roche for measurement of native pentameric CRP, for which it has high sensitivity and specificity and a high upper detection limit; it was calibrated against a standard produced in our laboratory. Serendipitously, one of the assay's antibodies binds to an epitope present on the ligand binding B face of CRP. Thus, when the binding pocket is occupied by ligand or is occluded, for example by B face to B face complexing of pentamers, the assay fails to detect CRP although it is demonstrable by other types of assays that employ antibodies which bind to different epitopes. Bivalent compounds such as BPC8 and APL-2191 were designed to crosslink pairs of CRP pentamers. Therefore, inhibition of CRP recognition in the MIRA assay is a convenient tool to monitor the efficacy and potency of complex formation between such ligands and CRP (6).
CRP concentrations were measured in the presence and absence of ligands by the COBAS MIRA autoanalyser. Concentrated Tris-calcium buffer (×10 TC) was prepared in MilliQ water from trishydroxymethyamine (100 mM), calcium chloride (20 mM) and sodium chloride (1.4 M). The pH was adjusted to 8.0 using HCl and sodium azide was added (0.1% w/v); the buffer was stored at 4° C. A tenfold diluted working buffer (TC) was prepared by dilution 100 ml of the ×10 concentrated buffer with 900 ml of MilliQ water. Human CRP was isolated, purified and characterised as previously reported (6-9) and stored frozen at −80° C. When required, stock CRP was thawed at 37° C. and working dilutions prepared that were kept at 4° C. for the duration of an experiment. CRP concentration was determined spectrophotometrically (Beckman Coulter DU 650) in quartz cuvettes with a 1 cm light path, by measuring […] after correction for absorbance at 320 nm (light scattering) and using the measured absorption coefficient A (1%, 1 cm)=17.5 for human CRP (10). Human CRP at ˜90 μg/ml (0.78 μM of pentamer) in TC buffer was prepared from a stock solution; a 75 μl aliquot was used in the assay. Compounds were supplied by Wuxi AppTec (Wuhan, China) as solids. They were dissolved in TC buffer at suitable concentrations, depending on solubility, of up to 10 mM (labelled S1). They were then serially diluted 1:2 with TC buffer (100 μl ligand+200 μl TC) to provide up to 9 dilutions, S2-S10. A TC buffer control (50) was included in each assay. A 15 μl volume of each ligand solution was incubated with 75 μl of CRP for 1 h at room temperature. The final concentrations were 0.73 μM native pentameric CRP, ligands S1-S10=625-0.03 μM, corresponding to ligand:CRPr ratios of 850-0.04. Where compounds were of reduced solubility in TC buffer, lower stock concentrations were used (from 0.6 mM), corresponding to final top assay concentrations of 100 μM.
Data are expressed as measured CRP (mg/L) against final total ligand concentration (μM) and were plotted using Sigmaplot (V14) using the 4 parameter logistic curve y=min+(max−min)/(1+(x/EC50)[…]) to calculate EC50. Where appropriate, samples were also measured in whole normal human serum following the addition of a known amount of human CRP. All compounds were assayed in comparison with a highly purified preparation of bis(phosphocholine)octane (BPC8), that was prepared by Carbogen AMCIS AG and diluted into sterile water at 10 mM concentration. It was stored at −80° C. The solution was diluted into TC buffer as required.

Point of comparison: `Cc1cc(C(=O)N[C@@H](C(=O)O)[C@H]2CN3CCC2CC3)ccc1C(=O)N[C@@H](C(=O)O)[C@H]1CN2CCC1CC2` [Example 9], IC50 0.55 µM. Against it:
- O=C(N[C@@H](C(=O)O)C1CN2CCC1CC2)c1ccc(C(=O)N[C@@H](C(=O)O)C2CN3CCC2CC3)cc1 (stereo partly drawn) [Example 1, (R,2R,2′R)-2,2′-(terephthaloylbis(azanediyl))bis(2-((R)-quinuclidin-3-yl)acetic acid)] — within 1.5-fold, 0.6 µM
- O=C(N[C@@H](C(=O)O)[C@H]1CN2CCC1CC2)c1ccc(C(=O)N[C@@H](C(=O)O)[C@H]2CN3CCC2CC3)nc1 [Example 2, (R,2R,2′R)-2,2′-((pyridine-2,5-dicarbonyl)bis(azanediyl))bis(2-((R)-quinuclidinyl)acetic acid)] — within 1.5-fold, 0.65 µM
- O=C(N[C@@H](C(=O)O)[C@H]1CN2CCC1CC2)c1cnc(C(=O)N[C@@H](C(=O)O)[C@H]2CN3CCC2CC3)cn1 [Example 3, (R,2R,2′R)-2,2′-((pyrazine-2,5-dicarbonyl)bis(azanediyl))bis(2-((R)-quinuclidinyl)acetic acid)] — 2.2-fold higher, 1.22 µM
- O=C(N[C@@H](C(=O)O)[C@H]1CN2CCC1CC2)c1ccc(C(=O)N[C@@H](C(=O)O)[C@H]2CN3CCC2CC3)nn1 [Example 4, (R,2R,2′R)-2,2′-((pyridazine-3,6-dicarbonyl)bis(azanediyl))bis(2-((R)-quinuclidin-3-yl)acetic acid)] — within 1.5-fold, 0.58 µM
- O=C(N[C@@H](C(=O)O)[C@H]1CN2CCC1CC2)c1ccc(-c2ccc(C(=O)N[C@@H](C(=O)O)[C@H]3CN4CCC3CC4)cc2)cc1 [Example 5, (R)-2-(4′-(((R)-carboxy((R)-quinuclidin-3-yl)methyl)carbamoyl)-[1,1′-biphenyl]-4-ylcarboxamido)-2-((R)-quinuclidin-3-yl)acetic acid] — within 1.5-fold, 0.73 µM
- Cc1cc(C(=O)N[C@@H](C(=O)O)[C@H]2CN3CCC2CC3)ccc1-c1ccc(C(=O)N[C@@H](C(=O)O)[C@H]2CN3CCC2CC3)cc1 [Example 6, (R)-2-(4′-(((R)-carboxy((R)-quinuclidin-3-yl)methyl)carbamoyl)-2′-methyl-[1,1′-biphenyl]-4-ylcarboxamido)-2-((R)-quinuclidin-3-yl)acetic acid] — within 1.5-fold, 0.56 µM
- O=C(N[C@@H](C(=O)O)[C@H]1CN2CCC1CC2)c1ccc2cc(C(=O)N[C@@H](C(=O)O)[C@H]3CN4CCC3CC4)ccc2c1 [Example 7, (R,2R,2′R)-2,2′-((naphthalene-2,6-dicarbonyl)bis(azanediyl))bis(2-((R)-quinuclidin-3-yl)acetic acid)] — within 1.5-fold, 0.51 µM
- Cc1cc(C(=O)N[C@@H](C(=O)O)[C@H]2CN3CCC2CC3)c(C)cc1C(=O)N[C@@H](C(=O)O)[C@H]1CN2CCC1CC2 [Example 8] — within 1.5-fold, 0.59 µM
- O=C(N[C@@H](C(=O)O)[C@H]1CN2CCC1CC2)c1cc(OCc2ccccc2)c(C(=O)N[C@@H](C(=O)O)[C@H]2CN3CCC2CC3)cc1OCc1ccccc1 [Example 10] — within 1.5-fold, 0.67 µM
- O=C(N[C@@H](C(=O)O)[C@H]1CN2CCC1CC2)c1cccc(C(=O)N[C@@H](C(=O)O)[C@H]2CN3CCC2CC3)c1 [Example 11, 2-[[3-[[carboxy-1(3R)-quinuclidin-3-yl]methyl]carbamoyl]benzoylamino]-2-[(3R)-quinuclidin-3-yl]acetic acid] — 3.7-fold higher, 2.02 µM
- C[N+](C)(C)CCOP(=O)(O)OCCCCCCCCOP(=O)(O)OCC[N+](C)(C)C [Example 12, bis(phosphocholine)octane] — 2.2-fold higher, 1.2 µM

Same assay, conditions: alternative stereoisomers of the formula (I) structure; read-out: IC50 of alternative stereoisomers (QA,QA: Quinuclidine, Amino Acid)

Point of comparison: `O=C(NC(C(=O)O)C1CN2CCC1CC2)c1ccc(C(=O)NC(C(=O)O)C2CN3CCC2CC3)cc1` (single isomer, unassigned) [SS,SS], IC50 34.4 µM. Against it:
- O=C(NC(C(=O)O)C1CN2CCC1CC2)c1ccc(C(=O)NC(C(=O)O)C2CN3CCC2CC3)cc1 (single isomer, unassigned) [RS,RR] — higher, > 1000 µM
- O=C(NC(C(=O)O)C1CN2CCC1CC2)c1ccc(C(=O)NC(C(=O)O)C2CN3CCC2CC3)cc1 (single isomer, unassigned) [RS,RS] — higher, > 1000 µM
- O=C(NC(C(=O)O)C1CN2CCC1CC2)c1ccc(C(=O)NC(C(=O)O)C2CN3CCC2CC3)cc1 (single isomer, unassigned) [SR,SR] — higher, > 1000 µM
